Assay results published in patent publication US8415469B2, “Compounds and methods for kinase modulation, and indications therefor” (Plexxikon Inc., priority 2005, dated 2013).

Tests used:
Assay type in all cases: biochemical
MAP2K1 = biological target: T1, MAP2K1 (Homo sapiens, UniProt Q02750); test: Z'-Lyte FRET kinase assay (Invitrogen), MAP2K1; conditions: read-out: IC50, activity toward kinase MAP2K1
T1 construct: purchased Invitrogen (assay run by Invitrogen)

Met = biological target: T2, Met (Homo sapiens, UniProt P08581); test: AlphaScreen kinase assay, Met; conditions: read-out: IC50, activity toward kinase Met
T2 construct: P1818.pETN6 BI-PTP MET G1056-G1364-X WT; His6 (N); made in house; host or cells: E. coli (PTP1B co-expressed)
In short: (§1)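 Here, phosphorylation of a biotin-tagged peptide was sensed by proximity of streptavidin donor and antibody-bearing acceptor beads. Test compounds covered 8 concentrations by 1:3 serial dilution of 20 mM DMSO stocks.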

Kdr = biological target: T3, Kdr (Homo sapiens, UniProt P35968); test: Z'-Lyte FRET kinase assay (Invitrogen), Kdr; conditions: read-out: IC50, activity toward kinase Kdr
T3 construct: purchased Invitrogen (assay run by Invitrogen)

FGFR1 = biological target: T4, FGFR1 (Homo sapiens, UniProt P11362, C488A/C584S); test: AlphaScreen kinase assay, FGFR1; conditions: read-out: IC50, activity toward kinase FGFR
T4 construct: P1351.pET N6 BI-PTP FGFR A458-E765-X C488A, C584S; made in house; host or cells: E. coli (PTP1B co-expressed)

Gsk3β = Gsk3β (Homo sapiens, UniProt P49841); test: AlphaScreen kinase assay, Gsk3β; conditions: read-out: IC50, activity toward kinase Gsk3β
Source text: AlphaScreen assay was used to screen additional kinases. The assay is similarly dependent on the phosphorylation of a peptide substrate. In this assay, an antibody that recognizes phosphorylated substrate is bound to an acceptor bead. The peptide substrate is attached to biotin, which binds to a donor head that contains streptavidin. Thus phosphorylated substrate is bound by antibody and streptavidin, bringing the donor and acceptor heads into close proximity when kinase is not inhibited. The donor produces singlet oxygen which results in emission from the acceptor when they are in close proximity. Conversely, when kinase is inhibited, the donor and acceptor beads are not associated and the emission from the acceptor is reduced.
AlphaScreen assays were done using compounds dissolved in DMSO to a concentration of 20 mM. The compounds were diluted accordingly to the desired final concentrations in each sample well, using 1:3 serial dilution for a total of 8 concentration points.

Stk6 = biological target: T5, Stk6 (Homo sapiens, UniProt O14965); test: Z'-Lyte FRET kinase assay (Invitrogen), Stk6; conditions: read-out: IC50, activity toward kinase Stk6
T5 construct: purchased Invitrogen (Carlsbad, Calif.), screening service
T5 sequence (O14965 1-403): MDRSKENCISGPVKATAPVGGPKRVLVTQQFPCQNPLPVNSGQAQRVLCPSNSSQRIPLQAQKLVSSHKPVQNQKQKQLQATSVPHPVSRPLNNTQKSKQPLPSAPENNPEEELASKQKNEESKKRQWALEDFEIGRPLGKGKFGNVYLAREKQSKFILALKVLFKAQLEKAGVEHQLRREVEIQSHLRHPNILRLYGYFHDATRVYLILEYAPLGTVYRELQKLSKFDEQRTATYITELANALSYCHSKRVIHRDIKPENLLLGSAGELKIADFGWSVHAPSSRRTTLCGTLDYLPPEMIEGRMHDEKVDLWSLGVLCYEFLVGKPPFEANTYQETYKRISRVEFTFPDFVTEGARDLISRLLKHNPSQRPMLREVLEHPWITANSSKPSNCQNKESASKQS

B-Raf V600E = biological target: T6, B-Raf V600E (Homo sapiens, UniProt P15056, V600E); test: AlphaScreen kinase assay, B-Raf V600E; conditions: read-out: IC50, activity toward kinase B-Raf V600E
T6 construct: P4254. pFastBacBD-CDC37 BRAF D437-K722-X, V600E; His6 with pFastBac HT leader (TEV site) (N); made in house; host or cells: Sf9 (baculovirus; chaperone CDC37 co-expressed)
Procedure: (§2) AlphaScreen assays were done using compounds dissolved in DMSO to a concentration of 20 mM. The compounds were diluted accordingly to the desired final concentrations in each sample well, using 1:3 serial dilution for a total of 8 concentration points. Plates were prepared such that each kinase reaction is 20 μl in 1× kinase buffer, 5% DMSO and 10 μM ATP. After incubation of the kinase reaction for 1 hour at room temperature, 5 μl of donor beads in stop buffer (50 mM EDTA in 1× kinase buffer) was added, the sample was mixed and incubated for 20 minutes at room temperature before adding 5 μl of acceptor beads in stop buffer. The samples were incubated for 60 minutes at room temperature and the signal per well was read on AlphaQuest reader.

Fak = biological target: T7, Fak (Homo sapiens, UniProt Q05397); test: AlphaScreen kinase assay, Fak; conditions: read-out: IC50, activity toward kinase Fak
T7 construct: P1358.pFastBacHtb FAK S411-Q686-X; His6 with pFastBacHTb leader (TEV site) (N); made in house; host or cells: Sf9 (baculovirus)

c-Raf-1 = biological target: T8, c-Raf-1 (Homo sapiens, UniProt P04049); test: AlphaScreen kinase assay, c-Raf-1; conditions: read-out: IC50, activity toward kinase c-Raf-1
T8 construct: purchased Upstate Biotechnology

Flt1 = biological target: T9, Flt1 (Homo sapiens, UniProt P17948); test: AlphaScreen kinase assay, Flt1; conditions: read-out: IC50, activity toward kinase Flt1
T9 construct: P1826.pETN6 BI-PTP FLT1 M799-D1165-X WT; His6 (N); made in house; host or cells: E. coli (PTP1B co-expressed)
T9 sequence (P17948 with tags, fused parts or gaps): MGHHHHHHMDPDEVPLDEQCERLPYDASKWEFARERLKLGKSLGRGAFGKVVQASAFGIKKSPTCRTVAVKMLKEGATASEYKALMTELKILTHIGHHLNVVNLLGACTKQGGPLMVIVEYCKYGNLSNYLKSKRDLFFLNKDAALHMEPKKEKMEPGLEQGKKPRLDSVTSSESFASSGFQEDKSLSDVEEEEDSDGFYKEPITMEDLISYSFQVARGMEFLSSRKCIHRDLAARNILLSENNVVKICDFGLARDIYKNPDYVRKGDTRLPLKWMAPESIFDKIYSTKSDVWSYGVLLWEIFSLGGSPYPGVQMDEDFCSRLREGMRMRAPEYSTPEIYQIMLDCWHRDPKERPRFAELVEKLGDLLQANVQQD

Jnk3 = biological target: T10, Jnk3 (Homo sapiens, UniProt P53779); test: AlphaScreen kinase assay, Jnk3; conditions: read-out: IC50, activity toward kinase Jnk3
T10 construct: purchased Upstate Biotechnology

Kit = biological target: T11, Kit (Homo sapiens, UniProt P10721); test: AlphaScreen kinase assay, Kit; conditions: read-out: IC50, activity toward kinase Kit
T11 construct: P1332.N6 BI PTP KIT M552-K948-X COD; His6 (N); made in house; host or cells: E. coli (PTP1B co-expressed)

Jnk1 = biological target: T12, Jnk1 (Homo sapiens, UniProt P45983); test: AlphaScreen kinase assay, Jnk1; conditions: read-out: IC50, activity toward kinase Jnk1
T12 construct: purchased Upstate Biotechnology

Fms = biological target: T13, Fms (Homo sapiens, UniProt P07333); test: AlphaScreen kinase assay, Fms; conditions: read-out: IC50, activity toward kinase Fms
T13 construct: purchased Upstate Biotechnology
Procedure: as §2

Pyk2 = biological target: T14, Pyk2 (Homo sapiens, UniProt Q14289); test: AlphaScreen kinase assay, Pyk2; conditions: read-out: IC50, activity toward kinase Pyk2
T14 construct: purchased Upstate Biotechnology

Ret = biological target: T15, Ret (Homo sapiens, UniProt P07949); test: AlphaScreen kinase assay, Ret; conditions: read-out: IC50, activity toward kinase Ret
T15 construct: P1378.pET-SF BI-PTP RET H661-R1012 HIS; made in house
T15 sequence (P07949 with tags, fused parts or gaps): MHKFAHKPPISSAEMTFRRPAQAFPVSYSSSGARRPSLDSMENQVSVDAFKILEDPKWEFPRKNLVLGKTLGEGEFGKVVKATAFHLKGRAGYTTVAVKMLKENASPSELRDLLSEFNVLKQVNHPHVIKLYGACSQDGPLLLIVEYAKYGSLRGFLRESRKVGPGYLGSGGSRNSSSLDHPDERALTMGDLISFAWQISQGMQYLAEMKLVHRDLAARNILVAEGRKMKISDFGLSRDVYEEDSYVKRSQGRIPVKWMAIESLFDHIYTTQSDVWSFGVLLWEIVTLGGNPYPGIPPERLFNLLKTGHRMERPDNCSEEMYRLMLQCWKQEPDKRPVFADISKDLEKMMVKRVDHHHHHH

Src = biological target: T16, Src (Homo sapiens, UniProt P12931); test: AlphaScreen kinase assay, Src; conditions: read-out: IC50, activity toward kinase Src
T16 construct: P1144. pET-N6 BI-PTP SRC V86-L536-X; made in house

Btk = biological target: T17, Btk (Homo sapiens, UniProt Q06187); test: Z'-Lyte FRET kinase assay (Invitrogen), Btk; conditions: read-out: IC50, activity toward kinase Btk
T17 construct: purchased Invitrogen (assay run by Invitrogen)

Abl = biological target: T18, Abl (Homo sapiens, UniProt P00519); test: AlphaScreen kinase assay, Abl; conditions: read-out: activity toward kinase Abl, IC50
T18 construct: P1121. pET-SPEC BI-PTP Abl G227-V515-X; His6 (N); made in house; host or cells: E. coli (PTP1B co-expressed)
T18 sequence (P00519 with tags, fused parts or gaps): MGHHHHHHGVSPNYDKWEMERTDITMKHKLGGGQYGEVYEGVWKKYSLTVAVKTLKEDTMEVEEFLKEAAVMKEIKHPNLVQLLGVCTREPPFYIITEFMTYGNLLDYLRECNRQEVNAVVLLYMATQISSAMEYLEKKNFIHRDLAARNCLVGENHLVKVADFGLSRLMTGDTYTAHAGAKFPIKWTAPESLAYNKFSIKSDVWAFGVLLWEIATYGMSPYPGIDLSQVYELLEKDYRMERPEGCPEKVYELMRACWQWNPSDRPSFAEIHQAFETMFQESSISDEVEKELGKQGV
In short: as §1

Flt4 = biological target: T19, Flt4 (Homo sapiens, UniProt P35916); test: AlphaScreen kinase assay, Flt4; conditions: read-out: IC50, activity toward kinase Flt4
T19 construct: purchased ProQinase GmbH (Freiburg, Germany)
In short: as §1

MAP4K4 = MAP4K4 (Homo sapiens, UniProt O95819); test: AlphaScreen kinase assay, MAP4K4; conditions: read-out: IC50, activity toward kinase MAP4K4
B-Raf = biological target: T20, B-Raf (Homo sapiens, UniProt P15056); test: AlphaScreen kinase assay, B-Raf; conditions: read-out: IC50, activity toward kinase B-Raf
T20 construct: purchased Upstate Biotechnology

Measured: IC50

T3 sequence (P35968 20-1356): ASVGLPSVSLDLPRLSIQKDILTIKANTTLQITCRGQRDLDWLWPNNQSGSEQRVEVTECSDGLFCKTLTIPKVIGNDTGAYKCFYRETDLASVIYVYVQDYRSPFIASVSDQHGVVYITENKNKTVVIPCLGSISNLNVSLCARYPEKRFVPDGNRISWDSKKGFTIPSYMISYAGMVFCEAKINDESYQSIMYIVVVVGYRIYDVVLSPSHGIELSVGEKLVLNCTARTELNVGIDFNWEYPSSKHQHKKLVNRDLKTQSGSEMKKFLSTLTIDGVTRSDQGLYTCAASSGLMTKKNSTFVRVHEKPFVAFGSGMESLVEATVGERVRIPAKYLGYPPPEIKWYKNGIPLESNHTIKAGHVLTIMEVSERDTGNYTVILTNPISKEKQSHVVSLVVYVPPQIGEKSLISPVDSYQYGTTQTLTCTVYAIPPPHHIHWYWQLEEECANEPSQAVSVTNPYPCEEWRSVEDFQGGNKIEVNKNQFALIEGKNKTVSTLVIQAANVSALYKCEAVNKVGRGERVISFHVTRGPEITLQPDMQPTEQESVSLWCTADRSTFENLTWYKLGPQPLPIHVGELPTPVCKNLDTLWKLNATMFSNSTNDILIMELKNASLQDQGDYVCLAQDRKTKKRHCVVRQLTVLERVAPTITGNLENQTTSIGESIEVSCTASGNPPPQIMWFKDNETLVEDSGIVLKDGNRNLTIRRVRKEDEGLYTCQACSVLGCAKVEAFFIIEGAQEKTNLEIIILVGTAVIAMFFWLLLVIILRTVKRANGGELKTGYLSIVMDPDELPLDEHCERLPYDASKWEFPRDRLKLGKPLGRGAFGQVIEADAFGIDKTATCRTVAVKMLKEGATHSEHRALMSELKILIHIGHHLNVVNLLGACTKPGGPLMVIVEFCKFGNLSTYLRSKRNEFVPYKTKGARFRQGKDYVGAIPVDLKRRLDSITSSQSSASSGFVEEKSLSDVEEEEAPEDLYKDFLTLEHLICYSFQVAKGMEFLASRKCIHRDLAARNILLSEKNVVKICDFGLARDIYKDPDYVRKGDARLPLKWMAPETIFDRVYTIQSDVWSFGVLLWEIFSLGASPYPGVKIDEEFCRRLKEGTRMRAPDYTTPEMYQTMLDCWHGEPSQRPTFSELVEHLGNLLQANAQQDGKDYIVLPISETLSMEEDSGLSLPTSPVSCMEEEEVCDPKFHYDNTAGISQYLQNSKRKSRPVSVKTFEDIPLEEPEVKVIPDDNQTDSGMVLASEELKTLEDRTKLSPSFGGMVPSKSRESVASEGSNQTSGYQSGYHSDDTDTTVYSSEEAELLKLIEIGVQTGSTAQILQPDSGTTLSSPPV
T8 sequence (P04049 whole entry): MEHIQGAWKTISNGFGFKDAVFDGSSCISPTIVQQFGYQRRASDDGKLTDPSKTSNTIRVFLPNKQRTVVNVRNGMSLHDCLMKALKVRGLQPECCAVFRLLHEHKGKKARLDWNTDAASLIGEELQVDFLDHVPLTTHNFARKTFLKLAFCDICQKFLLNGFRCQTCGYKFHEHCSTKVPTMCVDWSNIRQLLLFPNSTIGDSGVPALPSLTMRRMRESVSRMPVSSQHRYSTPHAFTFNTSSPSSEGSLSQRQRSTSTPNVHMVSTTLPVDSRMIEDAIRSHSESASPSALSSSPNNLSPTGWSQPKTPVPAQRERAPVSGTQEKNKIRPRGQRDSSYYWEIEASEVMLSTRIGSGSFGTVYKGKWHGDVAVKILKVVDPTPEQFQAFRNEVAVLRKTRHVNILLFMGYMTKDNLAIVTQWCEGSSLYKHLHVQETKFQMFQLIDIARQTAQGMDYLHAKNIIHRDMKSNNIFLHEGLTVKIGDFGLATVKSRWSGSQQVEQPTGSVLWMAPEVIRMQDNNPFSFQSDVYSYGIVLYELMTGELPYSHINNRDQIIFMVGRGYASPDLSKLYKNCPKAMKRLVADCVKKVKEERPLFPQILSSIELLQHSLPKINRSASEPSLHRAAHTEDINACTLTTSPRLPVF
Gsk3β, sequence (P49841 whole entry): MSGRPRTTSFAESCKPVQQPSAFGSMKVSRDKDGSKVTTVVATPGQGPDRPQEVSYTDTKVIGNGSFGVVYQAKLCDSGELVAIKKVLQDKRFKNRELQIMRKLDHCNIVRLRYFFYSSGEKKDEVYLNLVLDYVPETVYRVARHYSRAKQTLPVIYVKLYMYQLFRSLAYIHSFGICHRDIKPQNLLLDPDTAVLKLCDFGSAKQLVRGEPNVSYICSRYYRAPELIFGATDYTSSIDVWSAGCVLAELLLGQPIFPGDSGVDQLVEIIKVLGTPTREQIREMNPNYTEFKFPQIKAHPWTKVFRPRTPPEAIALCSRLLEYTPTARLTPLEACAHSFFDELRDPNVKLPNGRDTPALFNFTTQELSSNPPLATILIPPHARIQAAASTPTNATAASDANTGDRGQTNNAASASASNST
T4 sequence (P11362 458-765 C488A/C584S): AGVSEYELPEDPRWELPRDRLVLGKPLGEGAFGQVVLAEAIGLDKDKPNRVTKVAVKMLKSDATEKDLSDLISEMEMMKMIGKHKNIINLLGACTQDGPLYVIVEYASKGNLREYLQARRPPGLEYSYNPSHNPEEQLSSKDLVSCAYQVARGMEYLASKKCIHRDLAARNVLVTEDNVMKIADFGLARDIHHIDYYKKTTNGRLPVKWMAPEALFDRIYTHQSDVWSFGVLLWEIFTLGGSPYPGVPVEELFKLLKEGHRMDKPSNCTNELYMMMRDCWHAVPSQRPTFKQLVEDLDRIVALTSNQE
T6 sequence (P15056 with tags, fused parts or gaps V600E): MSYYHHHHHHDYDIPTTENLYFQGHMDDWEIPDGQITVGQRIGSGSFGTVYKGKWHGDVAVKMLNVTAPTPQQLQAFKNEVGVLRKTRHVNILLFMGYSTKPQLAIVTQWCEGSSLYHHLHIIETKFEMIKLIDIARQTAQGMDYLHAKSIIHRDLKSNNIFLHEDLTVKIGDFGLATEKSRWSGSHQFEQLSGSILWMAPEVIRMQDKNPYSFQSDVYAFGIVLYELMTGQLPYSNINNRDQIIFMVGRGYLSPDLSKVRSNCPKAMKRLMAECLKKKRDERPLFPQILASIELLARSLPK
T11 sequence (P10721 with tags, fused parts or gaps): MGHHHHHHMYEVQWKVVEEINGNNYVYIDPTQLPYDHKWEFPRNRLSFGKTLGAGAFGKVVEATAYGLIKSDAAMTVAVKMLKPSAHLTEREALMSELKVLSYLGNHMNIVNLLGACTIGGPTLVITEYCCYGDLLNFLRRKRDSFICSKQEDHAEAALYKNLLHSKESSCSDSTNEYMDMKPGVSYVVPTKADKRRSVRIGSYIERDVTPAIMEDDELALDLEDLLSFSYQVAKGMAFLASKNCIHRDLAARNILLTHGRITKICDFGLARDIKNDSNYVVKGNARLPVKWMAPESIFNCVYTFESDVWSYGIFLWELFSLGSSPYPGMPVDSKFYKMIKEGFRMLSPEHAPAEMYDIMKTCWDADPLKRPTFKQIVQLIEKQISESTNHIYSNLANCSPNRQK
T1 sequence (Q02750 whole entry): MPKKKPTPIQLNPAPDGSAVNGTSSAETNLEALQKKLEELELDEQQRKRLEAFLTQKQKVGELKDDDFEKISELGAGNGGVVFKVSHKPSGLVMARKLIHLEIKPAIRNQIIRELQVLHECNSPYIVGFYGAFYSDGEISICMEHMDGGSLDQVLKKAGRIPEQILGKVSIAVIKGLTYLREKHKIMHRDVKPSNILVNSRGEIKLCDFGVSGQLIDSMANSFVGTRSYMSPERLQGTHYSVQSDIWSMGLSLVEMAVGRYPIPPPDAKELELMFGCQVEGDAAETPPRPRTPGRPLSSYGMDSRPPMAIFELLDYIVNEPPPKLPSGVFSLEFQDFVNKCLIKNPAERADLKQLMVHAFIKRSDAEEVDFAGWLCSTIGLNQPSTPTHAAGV
T13 sequence (P07333 20-972): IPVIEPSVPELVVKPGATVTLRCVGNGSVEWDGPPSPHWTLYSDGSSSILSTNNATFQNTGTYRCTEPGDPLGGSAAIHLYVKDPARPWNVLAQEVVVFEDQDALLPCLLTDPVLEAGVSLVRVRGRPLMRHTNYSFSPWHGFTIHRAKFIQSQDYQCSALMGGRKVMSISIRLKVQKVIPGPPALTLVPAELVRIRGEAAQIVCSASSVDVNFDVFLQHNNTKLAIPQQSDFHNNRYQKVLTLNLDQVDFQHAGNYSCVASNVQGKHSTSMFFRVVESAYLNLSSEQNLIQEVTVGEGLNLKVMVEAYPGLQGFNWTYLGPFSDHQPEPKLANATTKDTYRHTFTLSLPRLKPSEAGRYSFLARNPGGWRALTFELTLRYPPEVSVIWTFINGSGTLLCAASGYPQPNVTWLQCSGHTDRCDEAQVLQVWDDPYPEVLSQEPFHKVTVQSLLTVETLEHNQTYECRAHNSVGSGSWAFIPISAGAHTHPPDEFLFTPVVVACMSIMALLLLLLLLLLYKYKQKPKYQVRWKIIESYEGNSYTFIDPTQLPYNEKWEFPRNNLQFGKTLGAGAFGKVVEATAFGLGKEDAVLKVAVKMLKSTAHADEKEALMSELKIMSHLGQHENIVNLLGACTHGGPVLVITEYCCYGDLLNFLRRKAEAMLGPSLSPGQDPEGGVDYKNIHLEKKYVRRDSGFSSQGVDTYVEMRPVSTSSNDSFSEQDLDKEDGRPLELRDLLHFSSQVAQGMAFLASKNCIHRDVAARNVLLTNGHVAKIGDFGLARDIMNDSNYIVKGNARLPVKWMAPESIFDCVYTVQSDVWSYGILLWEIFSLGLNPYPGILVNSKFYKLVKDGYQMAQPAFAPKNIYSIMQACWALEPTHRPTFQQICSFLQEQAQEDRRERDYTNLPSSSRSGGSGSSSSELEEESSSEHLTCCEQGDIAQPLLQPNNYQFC

COc1cccc(C(=O)c2c[nH]c3nccc(Cl)c23)c1 [Compound P-0149]
≤ 10 µM: MAP2K1 | Met | Kdr | FGFR1

CC(C)(C)OC(=O)Nc1ccc(F)c(C(=O)c2c[nH]c3ncc(Br)cc23)c1F [Compound P-1142]
≤ 10 µM: Gsk3β | FGFR1

Cc1ccc(-c2c(C)[nH]c3ncccc23)s1 [Compound P-0207]
≤ 10 µM: Gsk3β | Stk6

Cc1cc(C)cc(-c2ccnc3[nH]cc(Sc4ccccc4)c23)c1 [Compound P-0252]
≤ 10 µM: B-Raf V600E | Gsk3β

CC(=O)Nc1ccc(F)c(C(=O)c2c[nH]c3ncc(-c4cccnc4)cc23)c1F [Compound P-1002, N-[2,4-Difluoro-3-(5-pyridin-3-yl-1H-pyrrolo[2,3-b]pyridine-3-carbonyl)-phenyl]-acetamide]
≤ 10 µM: Fak | c-Raf-1 | Flt1 | Jnk3 | Kit | Jnk1 | B-Raf V600E | Fms | Gsk3β | Pyk2 | FGFR1

Cc1cc(C)cc(-c2ccnc3[nH]ccc23)c1 [Compound P-0159]
≤ 10 µM: Ret | Gsk3β

NC(=O)c1cccc(-c2ccnc3[nH]cc(C(=O)c4ccccc4F)c23)c1 [Compound P-1181]
≤ 10 µM: Ret | Flt1 | Kit | Src | B-Raf V600E | Gsk3β | FGFR1

Cc1cc(C)cc(-c2ccnc3[nH]cc(Sc4ccccn4)c23)c1 [Compound P-0273]
≤ 10 µM: Gsk3β

Cc1ccccc1C(=O)c1c[nH]c2nccc(-c3cccc(/C=C/C(=O)O)c3)c12 [Compound P-0094]
≤ 10 µM: Btk | Ret | Gsk3β | Stk6

Nc1cccc(-c2c(CN3CCC(C(=O)O)CC3)[nH]c3ncccc23)c1 [Compound P-0462]
≤ 10 µM: Gsk3β

O=[N+]([O-])c1cccc(Sc2c[nH]c3nccc(-c4cccc(C(F)(F)F)c4)c23)c1 [Compound P-0969]
≤ 10 µM: Gsk3β

CS(=O)(=O)Nc1cccc(-c2ccnc3[nH]cc(C(=O)c4ccccc4F)c23)c1 [Compound P-0236]
≤ 10 µM: Ret | Gsk3β

COc1cccc(C(=O)c2c[nH]c3ncc(-c4cccnc4)cc23)c1 [Compound P-0167]
≤ 10 µM: MAP2K1 | Ret | Kit | Kdr | Abl | Flt4 | FGFR1

O=C(c1c(F)ccc(NS(=O)(=O)c2ccccc2)c1F)c1c[nH]c2ncc(F)cc12 [Compound P-0902, N-[2,4-Difluoro-3-(5-fluoro-1H-pyrrolo[2,3-b]pyridine-3-carbonyl)-phenyl]-benzenesulfonamide]
≤ 10 µM: c-Raf-1 | MAP4K4 | B-Raf V600E | B-Raf | Gsk3β | FGFR1

Cc1c(NS(C)(=O)=O)cccc1C(=O)c1c[nH]c2ncc(Br)cc12 [Compound P-0180, N-[3-(5-Bromo-1H-pyrrolo[2,3-b]pyridine-3-carbonyl)-2-methyl-phenyl]-methanesulfonamide]
≤ 10 µM: c-Raf-1 | Flt1 | Kit | Kdr | B-Raf V600E | B-Raf | Fms | Gsk3β | FGFR1
